The subject of the assay is MX-1 breast xenograft, intrarenal, nude mice, tumor weight. In words: NCI In Vivo Anticancer Drug Screen. Data for tumor model Human Mammary Carcinoma MX-1 Xenograft (intrarenal inoculation) in NU/NU BALB/C (nude) mice. To be noted: endpoint: mean tumor weight change, higher = larger tumour. How it is done: The antitumor activity of compounds was measured in mice bearing transplantable tumors. Survival or tumor size were measured and the results are expressed as the measurement made in the treated group (T) divided by the measurement made in the vehicle treated control group (C). The tumor model used in this assay is Human Mammary Carcinoma MX-1 Xenograft (intrarenal inoculation) in NU/NU BALB/C (nude) mice
(In general: Xenograft models place foreign cells or tissue in a host animal.)

[1] abbreviates: dose: 50.0 mg/kg/injection, schedule: Q04DX003 (ip), vehicle: saline with Tween-80.
The mark [2] stands for this setting: dose: 300.0 mg/kg/injection, schedule: Q04DX003 (sc), vehicle: saline.
The mark [3] stands for this setting: dose: 600.0 mg/kg/injection, schedule: Q04DX003 (sc), vehicle: saline.
[4] abbreviates: dose: 25.0 mg/kg/injection, schedule: Q04DX003 (ip), vehicle: water.
The mark [5] stands for this setting: dose: 50.0 mg/kg/injection, schedule: Q04DX003 (ip), vehicle: water.
Where [6] appears, read: dose: 300.0 mg/kg/injection, schedule: Q04DX003 (sc), vehicle: saline with Tween-80.
Where [7] appears, read: dose: 150.0 mg/kg/injection, schedule: Q04DX003 (ip), vehicle: Klucel (hydroxypropylcellulose) (HPC).
Where [8] appears, read: dose: 300.0 mg/kg/injection, schedule: Q04DX003 (ip), vehicle: Klucel (hydroxypropylcellulose) (HPC).

Where “and” joins values, the source holds several entries; their conditions need not be identical. Equal entries are not always repeated. Results filed as inconclusive are left out.

On to `COc1cc(C(CC(C)=O)c2cc3c(cc2OC(C)=O)OCO3)cc(OC)c1OC` (stereo not drawn) (tested in a mixture with another compound), for which the T/C by setting is: under setting [1], 59 % of control; (dose: 72.0 mg/kg/injection, schedule: Q04DX003 (ip), vehicle: saline with Tween-80) 103 % of control; (dose: 100.0 mg/kg/injection, schedule: Q04DX003 (ip), vehicle: saline with Tween-80) 34 % of control; (dose: 120.0 mg/kg/injection, schedule: Q04DX003 (ip), vehicle: saline with Tween-80) 110 % of control; (dose: 200.0 mg/kg/injection, schedule: Q04DX003 (ip), vehicle: saline with Tween-80) 19 % of control and 20 % of control.
As to `C=CC(C)NC(=S)NNC(=S)NC` (stereo not drawn), the T/C (dose: 300.0 mg/kg/injection, schedule: Q04DX003 (sc), vehicle: saline + alcohol) was 85 % of control; the T/C (dose: 600.0 mg/kg/injection, schedule: Q04DX003 (sc), vehicle: saline + alcohol) is 58 % of control; the T/C (dose: 1200.0 mg/kg/injection, schedule: Q04DX003 (sc), vehicle: saline + alcohol) was 99 % of control.
Take `COc1cccc2c1C(=O)c1c(O)c3c(c(O)c1C2=O)CC(O)(C(=O)CO)CC3OC1CC(N)C(O)C(C)O1` (stereo not drawn): the T/C reads like this: (dose: 25.0 mg/kg/injection, schedule: Q01DX010 (sc), vehicle: saline) 41 % of control; (dose: 50.0 mg/kg/injection, schedule: Q01DX010 (sc), vehicle: saline) 22 % of control.
Consider `CO[C@@]12[C@@H]3N[C@@H]3CN1C1=C(C(=O)C(NCCc3ccccn3)=C(C)C1=O)[C@@H]2COC(N)=O`, for which the T/C is, setting by setting: (dose: 6.25 mg/kg/injection, schedule: Q04DX003 (ip), vehicle: saline with Tween-80) -51 % of control; (dose: 12.5 mg/kg/injection, schedule: Q04DX003 (ip), vehicle: saline with Tween-80) -84 % of control; (dose: 25.0 mg/kg/injection, schedule: Q04DX003 (ip), vehicle: saline with Tween-80) -92 % of control; under setting [1], -42 % of control.
On to `OCC1OC(n2cnc3c(=S)nc[nH]c32)C(O)C1O` (stereo not drawn), for which the T/C reads like this: under setting [2], 86 % of control; under setting [3], 58 % of control; (dose: 1200.0 mg/kg/injection, schedule: Q04DX003 (sc), vehicle: saline) 59 % of control and 75 % of control; (dose: 1600.0 mg/kg/injection, schedule: Q04DX003 (sc), vehicle: saline) 49 % of control; (dose: 2000.0 mg/kg/injection, schedule: Q04DX003 (sc), vehicle: saline) 65 % of control; (dose: 2400.0 mg/kg/injection, schedule: Q04DX003 (sc), vehicle: saline) 23 % of control and 39 % of control.
Consider `[Na+]`, for which the T/C is, setting by setting: (dose: 150.0 mg/kg/injection, schedule: Q04DX003 (ip), vehicle: water) 66 % of control; (dose: 600.0 mg/kg/injection, schedule: Q04DX003 (ip), vehicle: water) 84 % of control; (dose: 1200.0 mg/kg/injection, schedule: Q04DX003 (ip), vehicle: water) 97 % of control.
For `C=C(OC)C(Nc1cc(OC)c(OC)cc1C(=O)OC1CC(O[C@@H]2C(=O)C(NC(=O)OC)=C3/C(=C\CSSSC)[C@]2(O)C#C/C=C\C#C[C@@H]3OC2OC(C)C(NOC3CC(O)C(SC)C(C)O3)C(O)C2OC2CC(OC)C(NCCC)CO2)OC(C)C1O)OC` (stereo partly drawn), the T/C (dose: 0.31 micrograms/kg/injection, schedule: Q04DX003 (ip), vehicle: alcohol) was 71 % of control; the T/C (dose: 0.32 micrograms/kg/injection, schedule: Q04DX003 (ip), vehicle: saline + alcohol) is 39 % of control; the T/C (dose: 0.62 micrograms/kg/injection, schedule: Q04DX003 (ip), vehicle: alcohol) is 68 % of control; the T/C (dose: 0.64 micrograms/kg/injection, schedule: Q04DX003 (ip), vehicle: saline + alcohol) is 17 % of control; the T/C (dose: 1.25 micrograms/kg/injection, schedule: Q04DX003 (ip), vehicle: alcohol) was 22 % of control; the T/C (dose: 1.28 micrograms/kg/injection, schedule: Q04DX003 (ip), vehicle: saline + alcohol) was 27 % of control. For the same molecule, the T/C (dose: 2.5 micrograms/kg/injection, schedule: Q04DX003 (ip), vehicle: alcohol) was 26 % of control; the T/C (dose: 2.56 micrograms/kg/injection, schedule: Q04DX003 (ip), vehicle: saline + alcohol) is 13 % of control; the T/C (dose: 5.0 micrograms/kg/injection, schedule: Q04DX003 (ip), vehicle: alcohol) was 12 % of control.
`O=NNc1cnccn1`: the T/C is 53 % of control and 74 % of control (dose: 12.5 mg/kg/injection, schedule: Q04DX003 (ip), vehicle: water); 26 % of control (2×) and 41 % of control under setting [4]; 7 % of control and 8 % of control and 16 % of control under setting [5].
For the molecule `O=C1N[C@@H]2C(=C[C@H](O)[C@@H](O)[C@H]2O)c2cc3c(c(O)c21)OCO3`, under “dose: 1.25 mg/kg/injection, schedule: Q04DX003 (sc), vehicle: saline with Tween-80”, the T/C was 71 % of control.
Regarding `OC1(CSc2ccccc2)CCCCC1`, the T/C is 98 % of control under setting [6] and 112 % of control (dose: 600.0 mg/kg/injection, schedule: Q04DX003 (sc), vehicle: saline with Tween-80).
In the case of `CCN(CC)Cc1cc2[nH]c3c4ccc(Cl)cc4ncc3c2cc1OC`, the T/C was 92 % of control (dose: 75.0 mg/kg/injection, schedule: Q04DX003 (sc), vehicle: saline with Tween-80) and 73 % of control under setting [6].
In the case of `NC(N)=NS(=O)(=O)c1ccc(NCc2c3ccccc3nc3ccccc23)cc1`, the T/C by setting is: under setting [7], 38 % of control and 41 % of control; under setting [8], 40 % of control and 43 % of control; (dose: 600.0 mg/kg/injection, schedule: Q04DX003 (ip), vehicle: Klucel (hydroxypropylcellulose) (HPC)) 17 % of control and 22 % of control; (dose: 1200.0 mg/kg/injection, schedule: Q04DX003 (ip), vehicle: Klucel (hydroxypropylcellulose) (HPC)) 11 % of control and 17 % of control.
Regarding `CN1CCN(CN2C(=O)C3C4C=CC(C3C2=O)C2C3C(=O)N(CN5CCN(C)CC5)C(=O)C3C42)CC1` (stereo not drawn), the T/C was 98 % of control (dose: 9.3 mg/kg/injection, schedule: Q04DX003 (ip), vehicle: water); 106 % of control (dose: 18.75 mg/kg/injection, schedule: Q04DX003 (ip), vehicle: water); 67 % of control under setting [4]; 83 % of control (dose: 37.5 mg/kg/injection, schedule: Q04DX003 (ip), vehicle: water); 52 % of control under setting [5]; 122 % of control (dose: 75.0 mg/kg/injection, schedule: Q04DX003 (ip), vehicle: other). In addition, the T/C (dose: 75.0 mg/kg/injection, schedule: Q04DX003 (ip), vehicle: water) is 72 % of control and 94 % of control; the T/C (dose: 100.0 mg/kg/injection, schedule: Q04DX003 (ip), vehicle: water) was 45 % of control.
On to `Cc1cnc(/C=N\NC(N)=S)c2cccc(N)c12`, for which the T/C (dose: 125.0 mg/kg/injection, schedule: Q04DX003 (ip), vehicle: saline with Tween-80) was 31 % of control.
Take `O=C1CCC(=O)N1CO`: the T/C was 73 % of control under setting [2] and 86 % of control under setting [3].
Take `N=C(N)c1ccc(N=Nc2c(O)ccc3cc(O)ccc23)cc1`: the T/C was 98 % of control and 123 % of control (dose: 75.0 mg/kg/injection, schedule: Q04DX003 (ip), vehicle: Klucel (hydroxypropylcellulose) (HPC)); 95 % of control and 117 % of control under setting [7]; 70 % of control under setting [8].
Turning to `CCCCCCCC1C(=O)OC2CC3C(C)=CC(=O)C(O)C3(C)C3C4(O)OCC23C1C(C)C4O` (stereo not drawn), the T/C runs as follows: (dose: 10.0 mg/kg/injection, schedule: Q04DX003 (ip), vehicle: Klucel (hydroxypropylcellulose) (HPC)) 89 % of control; (dose: 20.0 mg/kg/injection, schedule: Q04DX003 (ip), vehicle: Klucel (hydroxypropylcellulose) (HPC)) 107 % of control; (dose: 40.0 mg/kg/injection, schedule: Q04DX003 (ip), vehicle: Klucel (hydroxypropylcellulose) (HPC)) 53 % of control.
Regarding `CN1COc2c(n(C)c(=O)[nH]c2=O)C1`, the T/C (dose: 100.0 mg/kg/injection, schedule: Q04DX003 (ip), vehicle: suspension in saline) is 85 % of control; the T/C (dose: 200.0 mg/kg/injection, schedule: Q04DX003 (ip), vehicle: saline) was 92 % of control; the T/C (dose: 200.0 mg/kg/injection, schedule: Q04DX003 (ip), vehicle: suspension in saline) is 65 % of control; the T/C (dose: 400.0 mg/kg/injection, schedule: Q04DX003 (ip), vehicle: saline) was 103 % of control; the T/C (dose: 400.0 mg/kg/injection, schedule: Q04DX003 (ip), vehicle: suspension in saline) is 68 % of control; the T/C (dose: 800.0 mg/kg/injection, schedule: Q04DX003 (ip), vehicle: saline) is 102 % of control. In addition, where the note is “dose: 800.0 mg/kg/injection, schedule: Q04DX003 (ip), vehicle: suspension in saline”, the T/C was 72 % of control.

The values above are taken from PubChem BioAssay AID298 (DTP/NCI, 2004).
